Measurements published in PubChem BioAssay AID248 (DTP/NCI, 2004).
Where “and” joins values, the source holds several entries; their conditions need not be identical. Equal entries are not always repeated. Inconclusive results and toxic doses are left out. No stated cut-off is given here; in the data, active means T/C of 150% or more; inactive means T/C below 125%.

System: L1210 leukemia ip in BDF1 mice, survival T/C
Experiment: NCI In Vivo Anticancer Drug Screen. Data for tumor model L1210 Leukemia (intraperitoneal) in B6D2F1 (BDF1) mice
Conditions: endpoint: mean survival time, higher = longer survival
In short: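 Mice bearing the transplanted tumor received compound or vehicle. Survival of the treated group was divided by that of the vehicle-treated control group to give the ratio.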

[1] = dose: 100.0 mg/kg/injection, schedule: Q04DX002 (ip), vehicle: Klucel (hydroxypropylcellulose) (HPC)
[2] = dose: 100.0 mg/kg/injection, schedule: Q04DX003 (ip), vehicle: Klucel (hydroxypropylcellulose) (HPC)
[3] = dose: 200.0 mg/kg/injection, schedule: Q04DX003 (ip), vehicle: Klucel (hydroxypropylcellulose) (HPC)
[4] = dose: 50.0 mg/kg/injection, schedule: Q01DX009 (ip), vehicle: saline with Tween-80
[5] = dose: 100.0 mg/kg/injection, schedule: Q01DX009 (ip), vehicle: saline with Tween-80
[6] = dose: 100.0 mg/kg/injection, schedule: Q04DX002 (ip), vehicle: saline with Tween-80
[7] = dose: 200.0 mg/kg/injection, schedule: Q01DX009 (ip), vehicle: saline with Tween-80
[8] = dose: 200.0 mg/kg/injection, schedule: Q04DX002 (ip), vehicle: saline with Tween-80
[9] = dose: 100.0 mg/kg/injection, schedule: Q04DX003 (ip), vehicle: saline with Tween-80
[10] = dose: 200.0 mg/kg/injection, schedule: Q04DX003 (ip), vehicle: saline with Tween-80
[11] = dose: 400.0 mg/kg/injection, schedule: Q04DX003 (ip), vehicle: saline with Tween-80
[12] = dose: 400.0 mg/kg/injection, schedule: Q01DX009 (ip), vehicle: saline with Tween-80
[13] = dose: 400.0 mg/kg/injection, schedule: Q04DX002 (ip), vehicle: saline with Tween-80
[14] = dose: 100.0 mg/kg/injection, schedule: Q04DX003 (ip), vehicle: saline
[15] = dose: 200.0 mg/kg/injection, schedule: Q04DX003 (ip), vehicle: saline
[16] = dose: 100.0 mg/kg/injection, schedule: Q01DX001 (ip), vehicle: carboxymethylcellulose (CMC)
[17] = dose: 200.0 mg/kg/injection, schedule: Q01DX001 (ip), vehicle: carboxymethylcellulose (CMC)
[18] = dose: 400.0 mg/kg/injection, schedule: Q01DX001 (ip), vehicle: carboxymethylcellulose (CMC)
[19] = dose: 100.0 mg/kg/injection, schedule: Q04DX002 (ip), vehicle: other
[20] = dose: 200.0 mg/kg/injection, schedule: Q04DX002 (ip), vehicle: other

Measured: T/C

CC(=O)n1c(O)c(N=NC(=N)N[N+](=O)[O-])c2ccccc21
inactive: dose: 100.0 mg/kg/injection, schedule: Q01DX001 (ip), vehicle: saline with Tween-80 97 % of control | dose: 132.0 mg/kg/injection, schedule: Q01DX001 (ip), vehicle: saline with Tween-80 101 % of control | dose: 200.0 mg/kg/injection, schedule: Q01DX001 (ip), vehicle: saline with Tween-80 97 % of control | dose: 300.0 mg/kg/injection, schedule: Q01DX001 (ip), vehicle: saline with Tween-80 106 % of control | dose: 400.0 mg/kg/injection, schedule: Q01DX001 (ip), vehicle: saline with Tween-80 101 % of control

CCCCCCC(N)C(=O)O (configuration not stated)
inactive: dose: 25.0 mg/kg/injection, schedule: Q04DX002 (ip), vehicle: Klucel (hydroxypropylcellulose) (HPC) 95 % of control | dose: 50.0 mg/kg/injection, schedule: Q04DX002 (ip), vehicle: Klucel (hydroxypropylcellulose) (HPC) 104 % of control | [1] 100 % of control | [2] 96 % of control | [3] 100 % of control | dose: 400.0 mg/kg/injection, schedule: Q04DX003 (ip), vehicle: Klucel (hydroxypropylcellulose) (HPC) 103 % of control

O=C(O)c1cccc2c1OCO2
inactive: [4] 112 % of control | [5] 98 % of control | [6] 103 % of control | [7] 98 % of control | [8] 95 % of control

Cn1[nH]c(=O)[nH]c1=O
inactive: dose: 100.0 mg/kg/injection, schedule: Q04DX002 (ip), vehicle: saline 103 % of control | [9] 98 % of control and 87 % of control | dose: 200.0 mg/kg/injection, schedule: Q04DX002 (ip), vehicle: saline 100 % of control | [10] 93 % of control | dose: 400.0 mg/kg/injection, schedule: Q04DX002 (ip), vehicle: saline 103 % of control | [11] 90 % of control

CCOC(=O)c1c(C)cc(O)cc1O
inactive: [5] 114 % of control | [7] 106 % of control | [12] 102 % of control

ClC1(Cl)C2C=CC=CCC21 (configuration not stated)
inactive: dose: 100.0 mg/kg/injection, schedule: Q01DX009 (ip), vehicle: other 103 % of control | dose: 100.0 mg/kg/injection, schedule: Q04DX003 (ip), vehicle: other 103 % of control | dose: 200.0 mg/kg/injection, schedule: Q01DX009 (ip), vehicle: other 97 % of control | dose: 200.0 mg/kg/injection, schedule: Q04DX003 (ip), vehicle: other 92 % of control | dose: 400.0 mg/kg/injection, schedule: Q01DX009 (ip), vehicle: other 92 % of control

COC(=O)c1ccccc1NC(=O)c1cc(C(=O)O)c(C(=O)Nc2ccccc2C(=O)OC)cc1C(=O)O
inactive: [5] 93 % of control and 107 % of control | [6] 100 % of control and 103 % of control | [9] 102 % of control | [7] 97 % of control and 113 % of control | [8] 106 % of control and 109 % of control | [10] 100 % of control | [12] 97 % of control and 92 % of control | [13] 96 % of control and 92 % of control | [11] 102 % of control

CC(=O)N1C(=O)C(Cl)C(Cl)C(=O)N1C(C)=O (configuration not stated)
inactive: [2] 89 % of control | [3] 89 % of control

O=C(O)c1cc(Cl)cc2c1-c1ccc(Cl)cc1C2Br (configuration not stated)
inactive: dose: 18.7 mg/kg/injection, schedule: Q01DX009 (ip), vehicle: carboxymethylcellulose (CMC) 96 % of control | dose: 75.0 mg/kg/injection, schedule: Q01DX001 (ip), vehicle: carboxymethylcellulose (CMC) 98 % of control | dose: 150.0 mg/kg/injection, schedule: Q01DX001 (ip), vehicle: carboxymethylcellulose (CMC) 91 % of control

Cc1ccc(-n2c(O)c(N=Nc3ccc(Cl)cc3)c(=O)n(-c3ccc(Cl)cc3)c2=S)cc1
inactive: dose: 50.0 mg/kg/injection, schedule: Q01DX001 (ip), vehicle: Klucel (hydroxypropylcellulose) (HPC) 100 % of control | dose: 100.0 mg/kg/injection, schedule: Q01DX001 (ip), vehicle: Klucel (hydroxypropylcellulose) (HPC) 105 % of control | dose: 200.0 mg/kg/injection, schedule: Q01DX001 (ip), vehicle: Klucel (hydroxypropylcellulose) (HPC) 95 % of control

O=Cc1c[nH]c2ccc(Br)cc12
inactive: [14] 95 % of control | [15] 105 % of control | dose: 400.0 mg/kg/injection, schedule: Q04DX003 (ip), vehicle: saline 95 % of control

CC(=O)CC(C)=Nc1ccc([N+](=O)[O-])cc1
inactive: [9] 101 % of control | [10] 103 % of control | [11] 89 % of control

Clc1ccc(C#Cc2ccc(Cl)cc2)cc1
inactive: dose: 6.25 mg/kg/injection, schedule: Q01DX009 (ip), vehicle: saline with Tween-80 103 % of control | dose: 12.5 mg/kg/injection, schedule: Q01DX009 (ip), vehicle: saline with Tween-80 103 % of control

Cc1c(NS(=O)(=O)c2ccccc2)c(C)c(NS(=O)(=O)c2ccccc2)c(C)c1NS(=O)(=O)c1ccccc1
inactive: [4] 96 % of control | [5] 96 % of control | [7] 88 % of control

COc1cc(-c2[o+]c3cc(O)cc(O)c3cc2OC2OC(CO)C(O)C(O)C2O)cc(OC)c1O (configuration not stated)
inactive: [16] 92 % of control | dose: 100.0 mg/kg/injection, schedule: Q04DX003 (ip), vehicle: saline sonified 98 % of control | [17] 101 % of control | [18] 100 % of control

N=C(N)SCc1ccc(C(=O)Oc2ccc([N+](=O)[O-])cc2)cc1
inactive: dose: 25.0 mg/kg/injection, schedule: Q01DX009 (ip), vehicle: saline 97 % of control | dose: 50.0 mg/kg/injection, schedule: Q01DX009 (ip), vehicle: saline 100 % of control and 103 % of control | dose: 100.0 mg/kg/injection, schedule: Q01DX009 (ip), vehicle: saline 106 % of control | [14] 101 % of control | [15] 98 % of control

O=C(Nc1cccc(C(=O)O)c1)Nc1ccc(Cl)c(C(F)(F)F)c1
inactive: [5] 87 % of control | [7] 100 % of control

CC1(C)COC(C)(C)C(=O)O1
inactive: [2] 106 % of control | [3] 97 % of control

O=[N+]([O-])c1cccc(Cl)c1F
inactive: [1] 101 % of control | dose: 200.0 mg/kg/injection, schedule: Q04DX002 (ip), vehicle: Klucel (hydroxypropylcellulose) (HPC) 96 % of control

COC1CC(OC(=O)c2ccc([N+](=O)[O-])cc2)C(OC(=O)c2ccc([N+](=O)[O-])cc2)C(C)O1 (configuration not stated)
inactive: [16] 93 % of control | [17] 102 % of control | [18] 88 % of control

ON=C1CCCCC1
inactive: dose: 75.0 mg/kg/injection, schedule: Q01DX009 (ip), vehicle: other 95 % of control | dose: 100.0 mg/kg/injection, schedule: Q01DX001 (ip), vehicle: saline 88 % of control | [5] 96 % of control | [19] 111 % of control | [6] 97 % of control | dose: 150.0 mg/kg/injection, schedule: Q01DX009 (ip), vehicle: other 105 % of control | dose: 200.0 mg/kg/injection, schedule: Q01DX001 (ip), vehicle: saline 96 % of control | [7] 94 % of control | [20] 97 % of control | [8] 94 % of control | dose: 300.0 mg/kg/injection, schedule: Q01DX009 (ip), vehicle: other 94 % of control | dose: 400.0 mg/kg/injection, schedule: Q01DX001 (ip), vehicle: saline 93 % of control | [12] 91 % of control | dose: 400.0 mg/kg/injection, schedule: Q04DX002 (ip), vehicle: other 97 % of control | [13] 102 % of control

c1nc2c(o1)CCCC2
inactive: dose: 50.0 mg/kg/injection, schedule: Q04DX002 (ip), vehicle: carboxymethylcellulose (CMC) 98 % of control | dose: 50.0 mg/kg/injection, schedule: Q04DX002 (ip), vehicle: other 97 % of control | dose: 100.0 mg/kg/injection, schedule: Q04DX002 (ip), vehicle: carboxymethylcellulose (CMC) 98 % of control | [19] 100 % of control | dose: 200.0 mg/kg/injection, schedule: Q04DX002 (ip), vehicle: carboxymethylcellulose (CMC) 95 % of control | [20] 93 % of control
